This is an account of results in patent publication US20120149647A1, “Methods for Assessing the Efficacy of Gemcitabine or Ara-C Treatment of Cancer Using Human Antigen R Levels” (priority 2009, published 2012).

Entries after “also recorded” stand apart in the source; their conditions may differ.

Experiment [1] has as its system pancreatic cancer cell lines MiaPaca2, PL-5, and Hs766t. Nature of the experiment: Drug sensitivity assay (PicoGreen cell survival), HuR-overexpressing vs control lines. It is filed as cell-based. The note with it: PicoGreen cell survival after 5-7 days of drug, HuR vs empty vector/control cells. The text has this: HuR cDNA sequence was cloned into the pcDNA 3.1. Zeo vector (Invitrogen) for stable transfection of pancreatic cancer cell lines MiaPaca2, PL-5, and Hs766t. Pooled cells remained under selection media containing Zeocin (Invitrogen) for several months after transfection. Mia.HuR, PL5.HuR, and Hs766t. HuR denote link overexpressing lines; Mia.EV, PL5.EV, and Hs766t denote empty vector or control lines. HuR and control siRNA sequences and transfection conditions were as described.
Mia.HuR, Mia.EV, Hs766t.HUR, Hs766t, and PL5.HuR, PL5.EV cells were seeded (1000 cells/well) in 96-well plates and treated with Etoposide, 5-Fluorouracil, Cis-platin, Staurosporine, Nocodazole, Colcemid, Ara-C (Sigma), and GEM (Gemzar, Eli-Lilly, Indianapolis, Ind.) for 6-7 days. After treatment, cells were washed with PBS and lysed with 100 μL of water/well; cell viability was quantified by staining of double-stranded DNA with QuantiT™ PicoGreen (Invitrogen) and analyzed with a TECAN SpectraFluor.

The subject of experiment [2] is pancreatic ductal adenocarcinoma. Description: Overall survival of resected PDA patients receiving GEM, stratified by cytoplasmic HuR. It is filed as in vivo. The following applies: for adjusted hazard ratio of low to high HuR: adjusted for age, sex, Xeloda use and radiation therapy. How it is done:
HuR immunostaining was performed on 32 resected PDA specimens from the Thomas Jefferson University pathology archives after IRB approval. All patients received GEM, alone or in combination with XELODA® (Capecitabine) (2 patients), radiation therapy (8 patients) or both (2 patients). The experienced pancreatic pathologist (A.K.W.) reviewed all cases in a blinded fashion and classified the tumors as well differentiated (n=6), moderately differentiated (n=22), or poorly differentiated […]. For each case, representative sections were selected for immunohistochemical analysis of HuR cytoplasmic and nuclear staining patterns, which were scored using the following scale: 0 for no staining, 1 for weak and/or focal (<10% of the cells) staining; 2 for moderate or strong, staining (10-50% of the cells); and 3 for moderate or strong staining (>50% of the cells). Combined scores 0 and 1 represented low expression, while combined scores 2 and 3 represented high expression.

For experiment [3], the system named is HuR association with dCK mRNA in MiaPaCa2 cells. Nature of the experiment: RNP IP assay of HuR association with dCK mRNA; dCK protein and mRNA levels. The class given is cell-based. The following applies: GEM treatment. As to the method: MiaPaCa2 cells were treated with 4 μM GEM and collected 48 hours later. For biotin pulldown analysis (Kuwano Y, et al. Mol Cell Biol 2008; […]), cytoplasmic extracts were isolated using, the NE-PER® Nuclear and Cytoplasmic Extraction Reagents Kit (Pierce Biotechnology) Probes for biotin pull-down analysis were synthesized as described (Kuwano Y, et al. Mol Cell Biol 2008; […] using the following PCR primers (sense and antisense, respectively) containing the T7 RNA polymerase promoter sequence […] (T7) (SEQ ID NO: 1): (T7)[…] (SEQ ID NO: 2) and […] (SEQ ID NO: 3) for dCK 3′UTR; (T7)[…] (SEQ ID NO: 4) and […] (SEQ ID NO: 5) for GAPD 3′UTR (Casolaro V, et al. J Allergy Clin Immunol 2008; 121:853-9 e4) (see supplemental figure for depiction of UTR positions). Biotinylated probes were synthesized using the MAXIscript T7 kit (Ambion) and Biotinylated dCTP (Enzo Life Sciences). For immunoprecipitation of endogenous RNA-protein complexes (RNP IP) from cytoplasmic (450 μg) extracts, reactions were carried out as described (Kuwano Y, et al. Mol Cell Biol 2008; 28:4562-75), using protein A Sepharose beads (Sigma) that were precoated with 30 μg of either mouse immunoglobulin G1 (IgG1; BD Biosciences), or anti-HuR antibodies. […] GAPDH and dCK transcripts were quantified by real-time PCR analysis using each specific primers: […] […]

In experiment [4] the test system is HuR in MiaPaCa2 cells. Description: HuR levels and localization by immunoblot and immunofluorescence. The class given is cell-based. The note with it: parental MiaPaCa2 cells, GEM treatment. As to the method: Cells were plated on LabTek II™ Chamber slides (Fisher Scientific) and fixed in 3% paraformaldehyde (20 min, RT). Cells were washed with PBS and permeabilized using 0.5% Triton X-100/1% normal goat serum (Vector Laboratories) in PBS (15 min). After washes in 1% goat serum/PBS, cells were incubated (1:50 dilution, 1 hr, RT) with mouse anti-HuR (Santa Cruz) or anti-deoxycytidine kinase (dCK, Abnova) primary antibodies. After washes in PBS, cells were incubated for 1 hr with goat anti-mouse secondary antibody (1:400, Alexa Fluor 647, Molecular Probes). Nuclei were stained with DAPI and cells were evaluated under a Zeiss LSM-510 Confocal Laser Microscope.
Whole-cell, cytoplasmic, and nuclear lysates were prepared as described (Kuwano Y, et al. Mol Cell Biol 2008; 28:4562-75), and protein was size-fractionated by SDS-PAGE (10% acrylamide). Membranes were blocked for 1 h in 5% Milk/TBS-T and incubated overnight with monoclonal antibodies (Santa Cruz) recognizing HuR, dCK, the cytoplasmic marker α-Tubulin, or the nuclear marker hnRNP. Membranes were washed with TBS-T and incubated with secondary antibodies; and the resulting signals were visualized by chemiluminescence (Millipore). Total protein was visualized with Fast Green (USB).
On the technique in general: In western blotting, separated proteins are transferred to a membrane and probed.

The test system of experiment [5] is Mia.EV and Mia.HuR cell lines. Description: Cell cycle analysis and apoptosis assay (flow cytometry). It is filed as cell-based. The note with it: 0.03 μM GEM, 48 h. As to the method:
Mia.EV and Mia.HuR cell lines were either left untreated or treated with 0.03 μM GEM for 48 h. For cell cycle analysis, cells were then fixed in 100% ethanol, and stained with a propidium iodide solution containing RNAse A (Sigma Aldrich). For apoptosis assays, cells were resuspended at 10^6 cells/mL and incubated in Annexin V and Propidium Iodide, following the manufacturers' protocol (FITC Annexin V, BD Pharmigen). Both assays were analyzed by flow cytometry.

Setting [6] is: patients receiving GEM, listed as gemcitabine.

On to `Nc1ccn([C@@H]2O[C@H](CO)[C@@H](O)[C@@H]2O)c(=O)n1` [Ara-C, Cytarabine], for which the “sensitivity of HuR-overexpressing cell lines compared with control lines” value (“sensitivity … compared with control lines” for short) in experiment [1] is listed as “selectively more sensitive; also recorded: hypersensitive”.
Regarding `Nc1ccn(C2OC(CO)C(O)C2(F)F)c(=O)n1` (stereo not drawn) [GEM, 4-amino-1-[3,3-difluoro-4-hydroxy-5-(hydroxymethyl)tetrahydrofuran-2-yl]-1H-pyrimidin-2-one], in experiment [2] (patients receiving GEM), the “hazard ratio of low to high HuR, univariate Cox regression” value was determined as 4.48 and the “adjusted hazard ratio of low to high HuR” value was found to be 7.34. In experiment [2] (setting [6]), the “adjusted hazard ratio of low to high HuR” value is 5.04; the “hazard ratio of low to high HuR, univariate Cox regression” value worked out at 3.36; the “increase in risk of death, low vs high HuR levels” value is reported as 5 fold. Further, the “median overall survival time for patients on GEM” value in experiment [2] (resected PDA patients, GEM alone or combined) worked out at 619 days. The “overall dCK protein or mRNA levels” value in experiment [3] was “did not alter”. In experiment [3] (RNP IP), the “HuR's association with dCK mRNA” value is given as “significantly increased”. Also, in experiment [4], the “cytoplasmic HuR levels” value is “significantly increased” and the “whole-cell HuR levels” value is “did not alter”. Moreover, in experiment [5], the “apoptosis of HuR overexpressing cells compared to control cells” value is “increased apoptosis” and the “cell cycle distribution of HuR overexpressing cells compared to control cells” value was “selective enrichment in the S-phase”. Also, the “sensitivity … compared with control lines” value in experiment [1] was “more sensitive”. Further, in experiment [1] (listed as gemcitabine), the “sensitivity … compared with control lines” value is “strikingly hypersensitive”.
